{
  "source": "patent US10168342B2",
  "about": "“Lipid probes and uses thereof” (THE SCRIPPS RESEARCH INSTITUTE, priority 2015, dated 2019)",
  "key": {"[1]": {"molecular_target": "T1, AEA-DA lipid probe targets in Neuro2a cells (Mus musculus, UniProt Q8R0X7)", "T1 sequence (Q8R0X7 1-568)": "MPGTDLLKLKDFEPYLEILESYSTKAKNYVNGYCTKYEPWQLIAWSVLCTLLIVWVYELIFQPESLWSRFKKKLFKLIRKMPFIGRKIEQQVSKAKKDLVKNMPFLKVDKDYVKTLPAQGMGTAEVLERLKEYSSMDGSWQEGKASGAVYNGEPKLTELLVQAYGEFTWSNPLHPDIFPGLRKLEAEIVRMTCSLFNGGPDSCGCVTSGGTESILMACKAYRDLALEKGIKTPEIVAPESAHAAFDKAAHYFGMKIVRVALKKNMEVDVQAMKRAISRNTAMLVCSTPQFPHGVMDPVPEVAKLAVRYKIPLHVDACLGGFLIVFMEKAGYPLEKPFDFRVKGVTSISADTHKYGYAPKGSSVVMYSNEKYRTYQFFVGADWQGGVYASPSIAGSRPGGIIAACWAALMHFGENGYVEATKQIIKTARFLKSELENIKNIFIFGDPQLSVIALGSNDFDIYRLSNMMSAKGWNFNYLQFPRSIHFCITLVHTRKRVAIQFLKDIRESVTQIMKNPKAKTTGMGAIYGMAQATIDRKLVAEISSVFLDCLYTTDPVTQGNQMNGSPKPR", "conditions": "for SILAC ratio, SGPL1 (O95470): Neuro2a cells, AEA-DA probe"}, "[2]": {"molecular_target": "AEA-DA lipid probe targets in Neuro2a cells (Mus musculus, UniProt Q9D771)", "sequence (Q9D771 whole entry)": "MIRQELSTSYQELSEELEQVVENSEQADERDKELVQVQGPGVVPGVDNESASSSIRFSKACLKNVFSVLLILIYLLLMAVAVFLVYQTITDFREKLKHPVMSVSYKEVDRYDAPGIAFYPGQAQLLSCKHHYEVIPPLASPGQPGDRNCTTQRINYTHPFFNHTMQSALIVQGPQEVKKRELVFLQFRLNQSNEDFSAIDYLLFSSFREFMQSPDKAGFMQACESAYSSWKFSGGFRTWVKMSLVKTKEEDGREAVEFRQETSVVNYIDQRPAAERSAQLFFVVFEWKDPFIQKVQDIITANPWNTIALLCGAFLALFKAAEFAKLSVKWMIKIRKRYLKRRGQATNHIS"}, "[3]": {"molecular_target": "T2, AEA-DA lipid probe targets in Neuro2a cells (Mus musculus, UniProt Q9CR67)", "T2 sequence (Q9CR67 1-247)": "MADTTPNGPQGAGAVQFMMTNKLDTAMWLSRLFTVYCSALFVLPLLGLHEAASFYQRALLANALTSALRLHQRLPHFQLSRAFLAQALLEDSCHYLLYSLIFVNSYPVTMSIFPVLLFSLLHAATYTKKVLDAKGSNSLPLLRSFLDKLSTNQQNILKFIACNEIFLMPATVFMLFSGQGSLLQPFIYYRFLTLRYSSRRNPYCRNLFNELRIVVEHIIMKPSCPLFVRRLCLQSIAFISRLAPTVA"}, "[4]": {"molecular_target": "T3, AEA-DA lipid probe targets in Neuro2a cells (Mus musculus, UniProt Q91ZV0)", "T3 sequence (Q91ZV0 23-1396)": "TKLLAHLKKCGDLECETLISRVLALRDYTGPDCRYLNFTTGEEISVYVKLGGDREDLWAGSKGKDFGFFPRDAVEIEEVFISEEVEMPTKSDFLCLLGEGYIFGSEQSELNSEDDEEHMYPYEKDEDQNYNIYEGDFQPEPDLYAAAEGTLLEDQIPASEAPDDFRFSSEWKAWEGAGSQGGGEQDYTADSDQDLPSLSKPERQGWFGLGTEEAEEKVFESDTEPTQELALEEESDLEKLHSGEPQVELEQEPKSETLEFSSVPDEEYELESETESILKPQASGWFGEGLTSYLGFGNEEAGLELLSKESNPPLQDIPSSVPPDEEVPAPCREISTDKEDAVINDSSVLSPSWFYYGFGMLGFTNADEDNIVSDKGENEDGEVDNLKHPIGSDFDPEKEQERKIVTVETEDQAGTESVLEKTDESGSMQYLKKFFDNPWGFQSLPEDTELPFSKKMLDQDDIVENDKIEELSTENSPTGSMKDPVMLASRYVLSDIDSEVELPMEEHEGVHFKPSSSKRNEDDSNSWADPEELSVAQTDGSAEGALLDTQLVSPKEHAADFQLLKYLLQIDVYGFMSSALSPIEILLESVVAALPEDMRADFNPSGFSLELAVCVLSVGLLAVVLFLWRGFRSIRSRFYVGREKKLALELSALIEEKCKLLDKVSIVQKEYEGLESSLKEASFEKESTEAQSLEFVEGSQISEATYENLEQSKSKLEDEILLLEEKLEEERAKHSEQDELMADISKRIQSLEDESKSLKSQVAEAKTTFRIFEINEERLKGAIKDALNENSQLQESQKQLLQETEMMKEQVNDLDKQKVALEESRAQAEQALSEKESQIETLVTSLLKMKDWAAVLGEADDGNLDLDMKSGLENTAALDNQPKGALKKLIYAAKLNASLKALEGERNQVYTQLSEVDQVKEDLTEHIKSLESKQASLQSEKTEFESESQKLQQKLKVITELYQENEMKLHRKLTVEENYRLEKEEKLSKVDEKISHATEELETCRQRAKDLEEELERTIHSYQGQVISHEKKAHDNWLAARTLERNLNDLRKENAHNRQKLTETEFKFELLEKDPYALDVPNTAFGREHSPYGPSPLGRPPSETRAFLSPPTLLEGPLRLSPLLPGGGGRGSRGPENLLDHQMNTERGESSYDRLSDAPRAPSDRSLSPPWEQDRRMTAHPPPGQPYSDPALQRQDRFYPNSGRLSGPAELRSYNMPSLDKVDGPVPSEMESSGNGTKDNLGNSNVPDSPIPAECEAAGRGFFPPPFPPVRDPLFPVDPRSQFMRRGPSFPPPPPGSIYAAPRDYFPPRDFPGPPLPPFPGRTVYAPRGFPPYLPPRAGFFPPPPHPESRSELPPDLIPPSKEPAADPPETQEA"}, "[5]": {"molecular_target": "T4, AEA-DA lipid probe targets in Neuro2a cells (Mus musculus, UniProt Q91WS0)", "T4 sequence (Q91WS0 1-108)": "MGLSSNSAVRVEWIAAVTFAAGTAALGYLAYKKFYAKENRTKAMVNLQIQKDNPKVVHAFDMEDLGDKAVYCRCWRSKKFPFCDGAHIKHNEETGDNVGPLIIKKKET"}, "[6]": {"molecular_target": "AEA-DA lipid probe targets in Neuro2a cells (Mus musculus, UniProt Q60932)", "sequence (Q60932 whole entry)": "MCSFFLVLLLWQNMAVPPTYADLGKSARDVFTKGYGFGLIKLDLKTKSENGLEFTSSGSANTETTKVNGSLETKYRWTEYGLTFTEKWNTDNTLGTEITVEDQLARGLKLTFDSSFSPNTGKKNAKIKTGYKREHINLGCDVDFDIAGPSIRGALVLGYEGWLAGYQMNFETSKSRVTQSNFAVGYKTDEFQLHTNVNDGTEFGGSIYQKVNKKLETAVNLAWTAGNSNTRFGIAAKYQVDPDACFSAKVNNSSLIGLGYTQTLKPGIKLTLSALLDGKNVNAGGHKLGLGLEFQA", "conditions": "Neuro2a cells, AEA-DA probe"}},
  "note": "Read-outs that look alike come from different tables or passages of the source.",
  "data": [
    {"smiles": "CCCCC/C=C\\C/C=C\\C/C=C\\C/C=C\\CCCC(=O)NCCO", "note": "[AEA, anandamide, reference compound]", "values": [
      {"measurement": "SILAC ratio, SGPL1 (O95470)", "setting": "[1]; competitor 200 μM", "value": 2.7},
      {"measurement": "SILAC ratio, Sgpl1", "setting": "[1]; competitor 200 μM", "value": 2.7},
      {"measurement": "SILAC ratio Tmem206", "setting": "[2]; competitor 200 μM", "value": 1.2},
      {"measurement": "SILAC ratio, Tmem33", "setting": "[3]; competitor 200 μM", "value": 1.8},
      {"measurement": "SILAC ratio, Ctage5", "setting": "[4]; competitor 200 μM", "value": 2.3},
      {"measurement": "SILAC ratio Cisd1", "setting": "[5]; competitor 200 μM", "value": 1.6},
      {"measurement": "SILAC ratio, VDAC1 (P21796)", "setting": "[6]; competitor 200 μM", "value": 1.1}
    ]},
    {"smiles": "O=C(/C=C/c1cccnc1)NCCCCC1CCN(C(=O)c2ccccc2)CC1", "note": "[FK-866, reference compound]", "values": [
      {"measurement": "SILAC ratio, SGPL1 (O95470)", "setting": "[1]; competitor 25 μM", "value": 1.7},
      {"measurement": "SILAC ratio, Sgpl1", "setting": "[1]; competitor 25 μM", "value": 1.7},
      {"measurement": "SILAC ratio Tmem206", "setting": "[2]; competitor 25 μM", "value": 0.9},
      {"measurement": "SILAC ratio, Tmem33", "setting": "[3]; competitor 25 μM", "value": 1.2},
      {"measurement": "SILAC ratio, Ctage5", "setting": "[4]; competitor 25 μM", "value": 1.1},
      {"measurement": "SILAC ratio Cisd1", "setting": "[5]; competitor 25 μM", "value": 1.1},
      {"measurement": "SILAC ratio, VDAC1 (P21796)", "setting": "[6]; competitor 25 μM", "value": 1.0}
    ]},
    {"smiles": "CN1CCN(C(=O)c2c(-c3ccccc3)c3cc([N+](=O)[O-])ccc3n2C)CC1", "note": "[KML110, (1-Methyl-5-nitro-3-phenyl-1H-indol-2-yl)(4-methylpiperazin-1-yl)methanone]", "values": [
      {"measurement": "SILAC ratio, Sgpl1", "setting": "[1]; competitor 25 μM", "value": 1.4},
      {"measurement": "SILAC ratio Tmem206", "setting": "[2]; competitor 25 μM", "value": 1.2},
      {"measurement": "SILAC ratio, Tmem33", "setting": "[3]; competitor 25 μM", "value": 1.4},
      {"measurement": "SILAC ratio, Ctage5", "setting": "[4]; competitor 25 μM", "value": 1.4},
      {"measurement": "SILAC ratio Cisd1", "setting": "[5]; competitor 25 μM", "value": 1.6}
    ]},
    {"smiles": "CN1CCN(C(=O)c2[nH]c3ccc([N+](=O)[O-])cc3c2-c2ccccc2)CC1", "note": "[MJN228, (4-Methylpiperazin-1-yl)(5-nitro-3-phenyl-1H-indol-2-yl)methanone]", "values": [
      {"measurement": "SILAC ratio, SGPL1 (O95470)", "setting": "[1]; competitor 25 μM", "value": 1.5},
      {"measurement": "SILAC ratio, Sgpl1", "setting": "[1]; competitor 10 μM", "value": 1.3},
      {"measurement": "SILAC ratio, Sgpl1", "setting": "[1]; competitor 25 μM", "value": 1.5},
      {"measurement": "SILAC ratio, Sgpl1", "setting": "[1]; competitor 50 μM", "value": 1.8},
      {"measurement": "SILAC ratio, Sgpl1", "setting": "[1]; competitor 100 μM", "value": 2.7},
      {"measurement": "SILAC ratio Tmem206", "setting": "[2]; competitor 10 μM", "value": 1.1},
      {"measurement": "SILAC ratio Tmem206", "setting": "[2]; competitor 25 μM", "value": 1.3},
      {"measurement": "SILAC ratio Tmem206", "setting": "[2]; competitor 100 μM", "value": 0.7},
      {"measurement": "SILAC ratio, Tmem33", "setting": "[3]; competitor 10 μM", "value": 1.3},
      {"measurement": "SILAC ratio, Tmem33", "setting": "[3]; competitor 25 μM", "value": 1.5},
      {"measurement": "SILAC ratio, Tmem33", "setting": "[3]; competitor 50 μM", "value": 1.5},
      {"measurement": "SILAC ratio, Tmem33", "setting": "[3]; competitor 100 μM", "value": 2.0},
      {"measurement": "SILAC ratio, Ctage5", "setting": "[4]; competitor 10 μM", "value": 1.1},
      {"measurement": "SILAC ratio, Ctage5", "setting": "[4]; competitor 25 μM", "value": 1.3},
      {"measurement": "SILAC ratio, Ctage5", "setting": "[4]; competitor 50 μM", "value": 1.5},
      {"measurement": "SILAC ratio, Ctage5", "setting": "[4]; competitor 100 μM", "value": 1.7},
      {"measurement": "SILAC ratio Cisd1", "setting": "[5]; competitor 10 μM", "value": 1.3},
      {"measurement": "SILAC ratio Cisd1", "setting": "[5]; competitor 25 μM", "value": 1.5},
      {"measurement": "SILAC ratio Cisd1", "setting": "[5]; competitor 50 μM", "value": 1.4},
      {"measurement": "SILAC ratio Cisd1", "setting": "[5]; competitor 100 μM", "value": 2.4},
      {"measurement": "SILAC ratio, VDAC1 (P21796)", "setting": "[6]; competitor 25 μM", "value": 1.1}
    ]},
    {"smiles": "C=CCN(C)CCCCCCOc1ccc(C(=O)c2ccc(Br)cc2)c(F)c1", "note": "[Ro 48-8071, reference compound]", "values": [
      {"measurement": "SILAC ratio, SGPL1 (O95470)", "setting": "[1]; competitor 25 μM", "value": 1.2},
      {"measurement": "SILAC ratio, Sgpl1", "setting": "[1]; competitor 25 μM", "value": 1.2},
      {"measurement": "SILAC ratio Tmem206", "setting": "[2]; competitor 25 μM", "value": 0.6},
      {"measurement": "SILAC ratio, Tmem33", "setting": "[3]; competitor 25 μM", "value": 1.1},
      {"measurement": "SILAC ratio, Ctage5", "setting": "[4]; competitor 25 μM", "value": 1.0},
      {"measurement": "SILAC ratio Cisd1", "setting": "[5]; competitor 25 μM", "value": 1.1},
      {"measurement": "SILAC ratio, VDAC1 (P21796)", "setting": "[6]; competitor 25 μM", "value": 1.0}
    ]}
  ]
}
